Experimental data taken from patent publication US5885824A, “Recombinant genomic clone encoding the histamine H2 receptor, methods for production thereof, and protein produced therefrom” (The Regents of the University of Michigan, priority 1993, dated 1999).
Entries after “also recorded” stand apart in the source; their conditions may differ.

Experiments:
[1] = target: T1, canine histamine H2 receptor (Canis lupus familiaris, UniProt P17124); assay: cyclic AMP content of L-cells transfected with CMVneo vector containing the canine histamine H2 receptor gene insert; format: cell-based; settings: for effect on cAMP content: doses as high as 10^-4 M, transfected L-cells
T1 construct: cloning of the entire gene encoding a histamine H2 receptor using cDNA derived from mRNA isolated from a canine gastric cell source; expressed in transfected cells; host or cells: mouse L-cells, permanently transfected (CMVneo vector, G418 selection)
T1 sequence (P17124 whole entry): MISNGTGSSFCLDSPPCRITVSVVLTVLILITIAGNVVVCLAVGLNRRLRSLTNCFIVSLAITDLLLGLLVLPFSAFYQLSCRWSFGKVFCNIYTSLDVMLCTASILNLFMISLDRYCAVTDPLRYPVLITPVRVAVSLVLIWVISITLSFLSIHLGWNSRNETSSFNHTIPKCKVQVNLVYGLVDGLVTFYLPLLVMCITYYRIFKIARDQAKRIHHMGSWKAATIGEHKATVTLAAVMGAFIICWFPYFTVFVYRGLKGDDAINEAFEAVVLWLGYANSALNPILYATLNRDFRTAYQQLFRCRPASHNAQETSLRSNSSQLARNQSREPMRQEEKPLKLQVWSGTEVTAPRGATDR

[2] = target: T1, canine histamine H2 receptor; assay: inhibition of [methyl-3H]-tiotidine binding to transformed L-cells; settings: for inhibition of [methyl-3H]-tiotidine binding (in words): percent of maximal specific binding
Protocol: Transformed L-cells were plated and grown to confluence in 2.4×1.7 cm multi-well plates. The culture media was removed and cells were washed twice with Earle's balanced salt solution containing 0.1% bovine serum albumin. An aliquot (36 nCi) of [methyl-^3 H]-tiotidine (87 Ci/mmol; Dupont, Boston Mass.) was added to the culture in the presence of either cimetidine or diphenhydramine and after one hour of incubation, the medium was removed by aspiration. The cells were washed twice with 0.2M phosphate buffered NaCl pH 7.4, lysed with 1% Triton X-100, and the radioactivity was quantified. Maximum binding was determined by incubation of [methyl-^3H]-tiotidine with transformed L-cells in the absence of antagonists and non-specific binding, which was subtracted from total binding to obtain specific binding, was determined as the amount of label remaining bound in the presence of 10^-4 M histamine. The data, presented as percent of maximal specific binding, are from a single experiment and are virtually identical to data obtained in two other experiments.

Compound	effect on cAMP content [1]	inhibition of [methyl-3H]-tiotidine binding (in words) [2]	other results
NCCc1c[nH]c2ccc(O)cc12 [Serotonin]	no effect	–	–
CN/C(=N/CCSCc1nc[nH]c1C)NC#N [cimetidine]	–	dose-dependently inhibited label binding	IC50 ([2]; one hour of incubation, mean±se n=4, read-out: ED50 for displacement of [methyl-3H]-tiotidine binding): 0.55 µM; effect on histamine cAMP dose-response curve ([1]; 60 min pre-incubation with cimetidine (10^-4 M)): shifted to the right
CN(C)CCOC(c1ccccc1)c1ccccc1 [diphenhydramine]	–	inhibited binding only at the very highest dose; also recorded: no ability to inhibit [methyl-^3 H]-tiotidine except with the highest dose	–
NCCc1ccc(O)c(O)c1 [dopamine]	no effect	–	–
CNC[C@H](O)c1ccc(O)c(O)c1 [epinephrine]	no effect	–	–
NCCc1c[nH]cn1 [histamine]	–	–	activation at 10 µM ([1]; 1 h, read-out: maximum increase in cellular cyclic AMP content): 217 ± 10%
